# Measurements taken from patent US8957192B2, “Human cytotoxic T-lymphocyte epitope and its agonist epitope from the non-variable number of tandem repeat sequence of MUC-1” (The United States of America, as represented by the …, priority 2003, dated 2015).
# Several values for one entry are separate records, joined by “and”; a condition that tells them apart may be missing. Equal entries are not always repeated.
# Experiments:
# HLA-A2 molecule [1] = target: HLA-A2 molecule (Homo sapiens, UniProt P04439, I166T/I218V/L300P/L318F/N151K/N90K/P208A/P217A/Q86G/Q94H/R138H/R169H/T345S); experiment: T2 cell binding assay: peptide binding to HLA-A2 by flow cytometry
# Description: In this assay, increased stability (accumulation) of HLA-A2 molecules on the surface of T2 cells as a consequence of peptide binding is measured by increased binding of antibody directed against HLA-A2 molecule. Briefly, 1×10^6 cells in serum-free Iscove's modified Dulbecco's complete medium were incubated with peptides at a concentration of 50 μg/ml in 24-well culture plates at 37° C. in 5% CO2. Flow cytometry for peptide binding was performed using T2 cells and single-color analysis. After cells were washed three times in DPBS, as described above, they were incubated for 1 h with a 1:100 dilution of HLA-A2-specific MAb (One Lambda, Inc.) per 10^6 cells. UPC-10 (Cappel/Organon Teknika) was used as isotype control. The cells were then washed three times and incubated with 1:100 dilution of FITC-labeled anti-mouse IgG (BD Biosciences). Analysis was conducted with the FACScan, as described above. Cells were maintained on ice during all cell preparation and staining.
# The primary amino acid sequence of human MUC-1 was analyzed for consensus motifs for novel HLA-A2 binding peptides. […] The CEA CAP1-6D peptide and a NCA peptide were used as a positive and negative control, respectively.
# peptide-HLA-A2 complexes = peptide-HLA-A2 complexes (Homo sapiens, UniProt P04439, D140Y/D185E/D98H/E176V/E277Q/G131W/G231S/I119V/I121R/I166T/I218V/L300P/L318F/N151K/N90K/P208A/P217A/Q86G/Q94H/R138H/R169H/T345S); experiment: Stability of peptide-HLA-A2 complex on T2 cells (brefeldin-A); assay type: binding; details: 50 μg/ml overnight, 8-hour observation
# Description: FIG. 2 is a graph showing the comparison of the stability of the complex of the P-92, P-93L or P-93I peptide with HLA-A2. T2 cells were incubated overnight with P-92 (open square), P-93L (closed square) or P-93I (closed triangle) peptide at a concentration of 50 μg/ml and then washed free of unbound peptide and incubated with brefeldin-A to block delivery of new class I molecules to the cell surface. At the indicated times, cells were stained for the presence of surface peptide-HLA-A2 complexes. Results are expressed in relative percentage of binding compared with 100% at time 0.
# The stability of the peptide-MHC complex for peptides P-92 (native), P-93L and P-93I, was examined. Peptides were incubated with T2 cells overnight, the unbound peptides were washed off, and then incubated with brefeldin-A to block delivery of new class I molecules to the cell surface; at various time points cells were analyzed for the presence of peptide-HLA-A2 complexes.
# HLA-A2 molecule [2] = target: HLA-A2 molecule (Homo sapiens, UniProt P04439, D140Y/D185E/D98H/E176V/E277Q/G131W/G231S/I119V/I121R/I166T/I218V/L300P/L318F/N151K/N90K/P208A/P217A/Q86G/Q94H/R138H/R169H/T345S); experiment: T2 cell binding assay: peptide binding to HLA-A2 by flow cytometry; details: peptides 0-50 μg/ml; MFI
# T-1191-MUC-1 cells [3] = experiment: IFN-γ production (ELISA) by T-1191-MUC-1 cells stimulated with peptide-pulsed autologous B cells; assay type: cell-based, human; details: for Production of IFN-γ, with peptide: T-1191-MUC-1 at IVS-3, autologous EBV-B cells pulsed 25 μg/ml, effector-to-APC 1:3, 24 h
# Description: (§1) Supernatants of T cells exposed for 24 h to peptide-pulsed autologous EBV-transformed B cells, in IL-2-free medium at various peptide concentrations, were screened for secretion of IFN-γ using an ELISA kit (R & D Systems, Minneapolis, Minn.). The results were expressed in pg/ml. A CBA system (BD PharMingen, San Diego, Calif.) was also used to determine the secretion of multiple cytokines by specific T cells. The CBA system uses the fluorescence detection by flow cytometry to measure soluble analyses in a particles-based immunoassay. The BD human Th1/Th2 cytokine CBA Kit was used to measure IL-2, IL-4, IL-5, IL-10, TNF-α protein levels in a single sample. The cytokine capture beads were mixed with PE-conjugated detection antibodies and then incubated with recombinant cytokine standards or test samples to form sandwich complexes. The sample results were generated in graphic and tabular format, using BD PharMingen CBA analysis software. The results were expressed in pg/ml.
# The specificity of the MUC-1-specific T cells generated (designated T-1191-MUC-1) was analyzed after IVS cycle 3 (see Materials and Methods) for their ability to release IFN-γ after stimulation with autologous B cells pulsed with each of the MUC-1 peptides listed in Table 1.
# T-1191-MUC-1 cells [4] = experiment: CBA assay for production of cytokines by MUC-1 peptide-stimulated T cells; assay type: cell-based, human; details: peptide 25 μg/ml; effector-to-APC 1:3; 24 h
# Description: as §1
# The ability of the P-93L and P-93I agonist peptides at various peptide concentrations, to activate the T-1191-MUC-1 cells, was compared. […] The P-93L agonist peptide was thus chosen for further study. The cytokine profile of T-1191-MUC-1 cells stimulated with APCs pulsed with either the P-92 or the P-93L peptide was then analyzed. A CBA assay was used for the analysis. […] No TNF-α could be detected in the supernatants at the 24-h time point.
# [5] = test system: MUC-1-specific T-cell lines T-23-P-92, T-23-P-93L, T-18-P-92, T-18-P-93L; experiment: IFN-γ production by T-cell lines from two pancreatic cancer subjects stimulated with peptide-pulsed DCs; assay type: cell-based, human; details: IVS-4; allogeneic DCs pulsed 25 μg/ml; effector-to-APC 10:1; 24 h
# [6] = test system: CEA-specific T cells (V8T); assay type: cell-based, human; details: 24 h
# [7] = test system: MUC-1-specific T cells (T-1191-P93L); assay type: cell-based, human; details: 24 h
# [8] = test system: T-cell lines T-rV, T-rF, T-rF(CEA), T-rF(MUC); assay type: cell-based, human; details: 24 h
# [9] = test system: T-cell lines T-55, T-49, T-41; experiment: IFN-γ production by T-cell lines from cancer patients established with rF-CEA/MUC/TRICOM-infected DCs; assay type: cell-based, human; details: autologous DCs as APC; peptides 25 μg/ml; effector-to-APC 10:1; 24 h
# [10] = Table 1, T2 cells, peptide 50 μg/ml
sequence,measurement,setting,value
AIWGQDVTSL [I-93/L-101],T2 binding,"HLA-A2 molecule [1]; Table 4, P-92 analogues",280 relative fluorescence values
AIWGQDVTSV [Peptide P-93I],T2 binding,"HLA-A2 molecule [1]; Table 4, P-92 analogues",823 relative fluorescence values
same,stability of the peptide-HLA-A2 complex (FIG. 2),peptide-HLA-A2 complexes,more stable than P-92-HLA-A2 complexes
same,binding to HLA-A2 at various peptide concentrations (FIG. 1),HLA-A2 molecule [2],higher levels than P-92 at all peptide concentrations
ALAIVYLIAL [Peptide P-1172],T2 binding,HLA-A2 molecule [1]; [10],372 relative fluorescence
same,"Production of IFN-γ, with peptide",T-1191-MUC-1 cells [3],<52.3 pg/mL
ALLVLVCVLV [Peptide P-1162],T2 binding,HLA-A2 molecule [1]; [10],431 relative fluorescence
same,"Production of IFN-γ, with peptide",T-1191-MUC-1 cells [3],<52.3 pg/mL
ALWGQDVTSL [L-93/L-101],T2 binding,"HLA-A2 molecule [1]; Table 4, P-92 analogues",736 relative fluorescence values
"ALWGQDVTSV [Peptide P-93L, MUC-1 agonist peptide]",T2 binding,"HLA-A2 molecule [1]; Table 4, P-92 analogues",821 relative fluorescence values
same,IFN-γ production by T-1191-MUC-1 cells at various peptide concentrations (FIG. 3),T-1191-MUC-1 cells [3]; peptides 0-6.25 μg/ml,greatest level of IFN-γ production
same,IFN-γ,T-1191-MUC-1 cells [4],650 pg/ml/10^6 cell/ml
same,IL-2,T-1191-MUC-1 cells [4],366.9 pg/ml/10^6 cell/ml
same,IL-4,T-1191-MUC-1 cells [4],<20 pg/ml/10^6 cell/ml
same,IL-5,T-1191-MUC-1 cells [4],140.9 pg/ml/10^6 cell/ml
same,IL-10,T-1191-MUC-1 cells [4],<20 pg/ml/10^6 cell/ml
same,TNF-α,T-1191-MUC-1 cells [4],<20 pg/ml/10^6 cell/ml
same,stability of the peptide-HLA-A2 complex (FIG. 2),peptide-HLA-A2 complexes,more stable than P-92-HLA-A2 complexes
same,IFN-γ produced by T-18-P-92,[5],366.6 pg
same,IFN-γ produced by T-18-P-93L,[5],524.1 pg
same,IFN-γ produced by T-23-P-92,[5],644.5 pg
same,IFN-γ produced by T-23-P-93L,[5],973.0 pg
same,"IFN-γ, CEA-specific CTL",[6],<15 pg/mL
same,"IFN-γ, MUC-1-specific CTL",[7],458 pg/mL and 550 pg/mL
same,Production of IFN-γ by T-rF,[8],446.0 pg/mL
same,Production of IFN-γ by T-rF(CEA),[8],<15.6 pg/mL
same,Production of IFN-γ by T-rF(MUC),[8],626.8 pg/mL
same,Production of IFN-γ by T-rV,[8],514.0 pg/mL
same,IFN-γ secretion by T-41,[9],745.0 pg/mL
same,IFN-γ secretion by T-49,[9],819.0 pg/mL
same,IFN-γ secretion by T-55,[9],985.8 pg/mL
same,binding to HLA-A2 at various peptide concentrations (FIG. 1),HLA-A2 molecule [2],higher levels than P-92 at all peptide concentrations
AMWGQDVTSL [M-93/L-101],T2 binding,"HLA-A2 molecule [1]; Table 4, P-92 analogues",325 relative fluorescence values
AMWGQDVTSV [Peptide M-93],T2 binding,"HLA-A2 molecule [1]; Table 4, P-92 analogues",723 relative fluorescence values
ATWGQDVTSV [Peptide P-92],T2 binding,HLA-A2 molecule [1]; [10],740 relative fluorescence
same,T2 binding,"HLA-A2 molecule [1]; Table 4, P-92 analogues",510 relative fluorescence values
same,"Production of IFN-γ, with peptide",T-1191-MUC-1 cells [3],380.8 pg/mL
same,IFN-γ,T-1191-MUC-1 cells [4],266 pg/ml/10^6 cell/ml
same,IL-2,T-1191-MUC-1 cells [4],58.8 pg/ml/10^6 cell/ml
same,IL-4,T-1191-MUC-1 cells [4],<20 pg/ml/10^6 cell/ml
same,IL-5,T-1191-MUC-1 cells [4],<20 pg/ml/10^6 cell/ml
same,IL-10,T-1191-MUC-1 cells [4],<20 pg/ml/10^6 cell/ml
same,TNF-α,T-1191-MUC-1 cells [4],<20 pg/ml/10^6 cell/ml
same,IFN-γ produced by T-18-P-92,[5],168.0 pg
same,IFN-γ produced by T-18-P-93L,[5],378.2 pg
same,IFN-γ produced by T-23-P-92,[5],299.8 pg
same,IFN-γ produced by T-23-P-93L,[5],400.5 pg
GTQSPFFLLL [Peptide P-4],T2 binding,HLA-A2 molecule [1]; [10],467 relative fluorescence
same,"Production of IFN-γ, with peptide",T-1191-MUC-1 cells [3],260.0 pg/mL
LAFREGTINV [Peptide P-1105],T2 binding,HLA-A2 molecule [1]; [10],461 relative fluorescence
same,"Production of IFN-γ, with peptide",T-1191-MUC-1 cells [3],<52.3 pg/mL
LIALAVCQC (YLIALAVCQC) [Peptide P-1177],T2 binding,HLA-A2 molecule [1]; [10],338 relative fluorescence
same,"Production of IFN-γ, with peptide",T-1191-MUC-1 cells [3],<52.3 pg/mL
LQRDISEMFL [Peptide P-1069],T2 binding,HLA-A2 molecule [1]; [10],433 relative fluorescence
same,"Production of IFN-γ, with peptide",T-1191-MUC-1 cells [3],288.0 pg/mL
REGTINVHDV [Peptide P-1108],T2 binding,HLA-A2 molecule [1]; [10],482 relative fluorescence
same,"Production of IFN-γ, with peptide",T-1191-MUC-1 cells [3],<52.3 pg/mL
TISDVSVSDV [Peptide P-1135],T2 binding,HLA-A2 molecule [1]; [10],422 relative fluorescence
same,"Production of IFN-γ, with peptide",T-1191-MUC-1 cells [3],347.2 pg/mL
TLASHSTKTD [Peptide P-1104],T2 binding,HLA-A2 molecule [1]; [10],442 relative fluorescence
same,"Production of IFN-γ, with peptide",T-1191-MUC-1 cells [3],305.6 pg/mL
"VISNDVCAQV [PSA peptide, prostate-specific antigen (PSA) peptide, control]",IFN-γ secretion by T-41,[9],<15.6 pg/mL
same,IFN-γ secretion by T-49,[9],<15.6 pg/mL
same,IFN-γ secretion by T-55,[9],<15.6 pg/mL
VLVALAIVYL [Peptide P-1169],T2 binding,HLA-A2 molecule [1]; [10],369 relative fluorescence
same,"Production of IFN-γ, with peptide",T-1191-MUC-1 cells [3],<52.3 pg/mL
WGQDVTSVPV [Peptide P-94],T2 binding,HLA-A2 molecule [1]; [10],591 relative fluorescence
same,"Production of IFN-γ, with peptide",T-1191-MUC-1 cells [3],323.6 pg/mL
"YLSGADLNL [CAP1-6D, reference compound]",IFN-γ produced by T-18-P-92,[5],<26 pg
same,IFN-γ produced by T-18-P-93L,[5],<26 pg
same,IFN-γ produced by T-23-P-92,[5],<26 pg
same,IFN-γ produced by T-23-P-93L,[5],<26 pg
same,"IFN-γ, CEA-specific CTL",[6],772 pg/mL and 820 pg/mL
same,"IFN-γ, MUC-1-specific CTL",[7],<15 pg/mL
same,Production of IFN-γ by T-rF,[8],550.0 pg/mL
same,Production of IFN-γ by T-rF(CEA),[8],729.2 pg/mL
same,Production of IFN-γ by T-rF(MUC),[8],<15.6 pg/mL
same,Production of IFN-γ by T-rV,[8],976.3 pg/mL
same,IFN-γ secretion by T-41,[9],933.4 pg/mL
same,IFN-γ secretion by T-49,[9],974.2 pg/mL
same,IFN-γ secretion by T-55,[9],">1,000 pg/ml"
"YRPGENLNL [NCA, NCA peptide used as a negative control, reference compound]",T2 binding,HLA-A2 molecule [1]; [10],365 relative fluorescence
